Data reported in patent publication US7811760B2, “Vector and method for detecting the change in transcription amount” (priority 2006, dated 2010).

Target: T1, C57/BL6-line mouse AhR (Mus musculus, UniProt P30561)
T1 construct: The AhR gene-coding region of the C57/BL6-line mouse was amplified from the reverse-transcribed sample by means of PCR; expressed in transfected cells; host or cells: mouse neuroblastoma Neuro2a, transient transfection with LIPOFECTAMINE 2000
T1 sequence (P30561 10-805 M324I/F348L/P471L/N533S/M589L/T758A limits assumed): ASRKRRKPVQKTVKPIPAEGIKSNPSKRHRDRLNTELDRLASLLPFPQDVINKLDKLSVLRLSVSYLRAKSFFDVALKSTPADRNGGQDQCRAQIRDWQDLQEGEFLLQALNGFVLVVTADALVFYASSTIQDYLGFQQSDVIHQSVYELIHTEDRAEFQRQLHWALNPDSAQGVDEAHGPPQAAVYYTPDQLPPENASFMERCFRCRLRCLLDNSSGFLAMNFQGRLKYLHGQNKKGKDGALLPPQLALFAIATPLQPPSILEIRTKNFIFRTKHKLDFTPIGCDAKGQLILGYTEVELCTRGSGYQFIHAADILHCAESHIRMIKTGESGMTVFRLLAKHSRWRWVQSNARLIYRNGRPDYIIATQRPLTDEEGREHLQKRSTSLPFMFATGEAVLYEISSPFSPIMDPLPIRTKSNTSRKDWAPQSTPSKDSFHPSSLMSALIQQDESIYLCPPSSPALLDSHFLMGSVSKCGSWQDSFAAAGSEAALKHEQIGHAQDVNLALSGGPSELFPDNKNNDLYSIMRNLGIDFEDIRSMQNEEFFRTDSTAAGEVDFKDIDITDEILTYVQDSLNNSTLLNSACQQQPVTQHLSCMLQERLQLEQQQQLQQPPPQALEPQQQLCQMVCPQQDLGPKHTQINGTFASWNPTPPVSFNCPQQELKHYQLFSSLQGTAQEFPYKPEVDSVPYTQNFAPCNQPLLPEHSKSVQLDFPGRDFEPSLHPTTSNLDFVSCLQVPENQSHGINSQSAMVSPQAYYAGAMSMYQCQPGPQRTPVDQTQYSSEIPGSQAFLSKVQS
Assay: Reporter gene assay in Neuro2a with pTHE100×3/Luc and PGV-mAhR
Format: cell-based
Settings: 1 to 10,000 pM TCDD
Source text: In Example 8, the vector pTHE100×3/Luc (Example 7, FIG. 7A) was used as the vector containing a reporter gene, and Neuro2a was used as the cell.
In this Example, a combination of pcDNA4-rAhR (Example 1) containing the SD-line rat AhR gene and pcDNA4/V5-His/lacZ (Invitrogen), as well as a combination of PGV-mAhR (Example 1) containing the C57/BL6-line mouse AhR gene and pcDNA4/V5-His/lacZ were used as the vectors for introducing into the cell together with pTHE100×3/Luc. pcDNA4-rAhR was introduced into the cell for constitutive expression of the SD-line rat AhR (SEQ ID No: 10); PGV-mAhR was introduced into the cell for constitutive expression of C57/BL6-line mouse AhR (SEQ ID No: 11); and pcDNA4/V5-His/lacZ was introduced into the cell for normalization of the transfection efficiency of the vector.
The vectors were introduced into the cell by using LIPOFECTAMINE 2000, similarly to the method described in Example 3. After the above vectors were introduced into the cell, the obtained cell was exposed to 1 to 10,000 pM of TCDD to examine the increase in expression amount of the reporter gene in response to TCDD.

Compound: Clc1cc2c(cc1Cl)Oc1cc(Cl)c(Cl)cc1O2 [TCDD, 2,3,7,8-tetrachlorodibenzo-p-dioxine]
- induction of transcription of the reporter gene in response to TCDD: effective in inducing transcription of the reporter gene
